{"source": "patent US20260256860A1", "about": "“TRADITIONAL CHINESE MEDICINE COMPOSITION FOR TREATING AMYOTROPHIC LATERAL SCLEROSIS AND USE THEREOF” (HEBEI YILING MEDICAL RESEARCH INSTITUTE CO., LTD, priority 2023, published 2026)", "format_in_all_cases": "in vivo", "key": {"[1]": {"system": "SOD1-G93A transgenic mice", "test": "Immunofluorescence of gastrocnemius muscle and spinal cord, SOD1-G93A transgenic mice", "conditions": "vs model control; Riluzole 0.02 g/kg; TCM-073 each administration group (1.5, 3.0, 6.0 g raw drug/kg); 30 days", "description": "(§1) After ALS model mice were determined to have significant changes compared to negative control mice in behavioral test by combining literature as well as prior experience, they were randomly grouped according to their body weight. The drug administration was started and mice were observed.\n(§2) The corresponding drug solution was administered via gavage using a syringe at a volume of 10 ml/kg. The model group and negative control group were administered with an equivalent volume of sterile injectable water. The administration dose for each animal was adjusted weekly according to the animal's latest weighed weight.\n(§3) After 30 days of administration, electrophysiological measurements were performed, and tissue material was collected for subsequent detections. • 2.7.1 Electrophysiological parameters\nBased on the amount of spinal cord and muscle tissues harvested from mice, neuromuscular junction, stem cell regeneration, microglial senescence and degree of myelin and neuronal damage and repair were detected. For example, the muscular presynaptic marker (synaptotagmin-2) and the acetylcholine receptor (AChR) marker (α-BTX) were co-stained, the satellite cell marker (Pax7) and laminin 2a were co-stained, the myelin marker (myelin basic protein, MBP) was stained, and the neuronal marker (beta-III Tubulin, also known as Tuj-1) was stained. • 2.7.5 Molecular biological indicators\nThe muscular presynaptic marker (synaptotagmin-2) and acetylcholine receptor (AChR) marker (α-BTX) of the gastrocnemius muscle were detected by the immunofluorescence.\nThe satellite cell marker (Pax7) and laminin 2α of the gastrocnemius muscle were detected by the immunofluorescence.\nThe myelin marker (myelin basic protein, MBP) of the spinal cord was detected by the immunofluorescence.\nThe neuronal marker (beta-III Tubulin, also known as Tuj-1) of the spinal cord was detected by the immunofluorescence."}, "[2]": {"system": "SOD1-G93A transgenic mice", "test": "Hanging test in SOD1-G93A transgenic mice", "conditions": "Riluzole 0.02 g/kg gavage, 90 second cut-off", "description": "as §1, §2\n• 2.6.1 The tail suspension test was carried out to observe straightening reflex of limbs. […] The scoring criteria are as follows: • 0 points—No flexion of the hindlimbs observed. • 1 point—Flexion observed in unilateral hindlimb, with no obvious flexion in the other. • 2 points—Flexion observed in bilateral hindlimbs. Mice with a score of 2 points were considered to be in the symptomatic phase. The tail suspension test was stopped when all ALS mice reached a score of 2 points. • 2.6.2 Hanging Test: The mouse was placed on a 3-mesh screen. The screen was then rapidly inverted, causing the mouse to hang upside down, and the timer was started. A 90 second cut-off time was set. The mice with a hanging time of less than 90 seconds were noted, and the actual time they remained hanged was recorded. The hanging test was discontinued upon the occurrence of death in ALS mice. […] The severity of this abnormality correlates with the degree of muscle atrophy and loss of muscle strength. In this study, the onset of disease in transgenic mice was determined based on the results of the tail suspension test. Additionally, guided by literature review and previous experimental experience, each mouse was sequentially evaluated by both the tail suspension and hanging tests."}, "[3]": {"system": "SOD1-G93A transgenic mice", "test": "Time to onset of paralysis in SOD1-G93A transgenic mice", "conditions": "Riluzole 0.02 g/kg gavage", "protocol": "Neurological function was evaluated during the dosing phase using the Snow scoring method twice weekly. […]\nThe time from administration to the first occurrence of a neurological function score ≥3.5 was defined as the time to onset of paralysis. The mean time to onset of paralysis of animals was calculated. […] The paralysis delay rate for each drug group was also calculated according to the following formula:\nThe time from administration to the first occurrence of a neurological function score ≥3.5 was defined as the time to onset of paralysis. The mean time to onset of paralysis of animals was calculated. […]"}, "[4]": {"system": "SOD1-G93A transgenic mice", "test": "Neurological function score (Snow scoring) in SOD1-G93A transgenic mice", "conditions": "Riluzole 0.02 g/kg gavage", "description": "as §1, §2\nNeurological function was evaluated during the dosing phase using the Snow scoring method twice weekly. The specific criteria for neurological system scoring are as follows. • 1.0 point—Abnormal extension or tremors of hind limbs of the mouse when suspended by tail. • 1.5 points—Weakness of unilateral hind limb • 2.0 points—Weakness of bilateral hind limbs along with abnormal gait. • 2.5 points—Obvious weakness of unilateral hind limb. • 3.0 points—Obvious weakness of bilateral hind limbs. • 3.5 points—Paralysis in unilateral hind limb. • 4.0 points—Paralysis in bilateral hind limbs. • 5.0 points—Inability of mouse to right itself from a supine position within 20 seconds."}, "[5]": {"system": "SOD1-G93A transgenic mice", "test": "HE staining of sciatic nerve, lesion grading, SOD1-G93A transgenic mice", "parameters": "key to Axonal degeneration with myelin degeneration, lesion grade of individual animal: mild (+); moderate (++); moderately severe (+++); severe (++++)", "conditions": "for Lesion score (divided by gender): median of lesion grade points; for Axonal degeneration with myelin degeneration, lesion grade of individual animal: sciatic nerve HE, individual animals, listed as Positive drug control group", "description": "as §1, §2, §3\nHE staining was carried out to observe gastrocnemius muscle and sciatic nerve. Toluidine blue staining was carried out to observe the morphology and number of motor neurons in the spinal cord. • 2.7.4 Immunofluorescence"}, "[6]": {"system": "SOD1-G93A transgenic mice", "test": "Serum malondialdehyde (MDA) in SOD1-G93A transgenic mice", "conditions": "Mus musculus, po, 720 h; read-out: % Inhibition rate (on oxidative damage, from MDA content)", "protocol": "Blood of mice was collected by removal of eyeball. The blood samples were allowed to stand until supernatant separated out, and then centrifuged at 3,000 rpm for 10 minutes at 4° C. to isolate serum. The serum was aliquoted into EP tubes and stored in an ultra-low temperature refrigerator (−80° C.). MDA content was measured. The inhibition rate on oxidative damage by each drug group was calculated according to MDA content, following the formula of.\nBlood of mice was collected by removal of eyeball. Blood samples were allowed to stand until supernatant separated out, and then centrifuged at 3,000 rpm for 10 minutes at 4° C. to isolate serum. The MDA content was measured using a kit, and the inhibition rate on oxidative damage by each drug group was calculated according to MDA content."}, "[7]": {"system": "SOD1-G93A transgenic mice", "test": "Immunoblotting of MBP and SV2A in spinal cord, SOD1-G93A transgenic mice", "conditions": "Riluzole 0.02 g/kg gavage, 30 days, negative control 1.00", "description": "as §1, §2, §3\nBased on the amount of spinal cord tissue harvested from mice, myelin- and synapse-related molecular biological indicators were detected. The myelin- and synapse-related indicators included myelin basic protein (MBP) and synaptic vesicle protein 2A(SV2A).\nBased on the amount of spinal cord tissue harvested from mice, myelin- and synapse-related molecular biological indicators, including myelin basic protein (MBP) and synaptic vesicle protein 2A (SV2A), were detected."}, "[8]": {"system": "SOD1-G93A transgenic mice", "test": "Compound muscle action potential electrophysiology in SOD1-G93A transgenic mice", "conditions": "Riluzole 0.02 g/kg gavage, 30 days", "description": "• 1.3.1 Animal Strain: B6SJL-Tg (SOD1-G93A) 1 Gur/J (Stock Number: 002726) provided by The Jackson Laboratory (United States). […] Both males and females were included. • 1.3.4 Animal Age: 7-8 weeks old. • 1.3.5 Animal Weight: At the start of dosing the body weight of male mice was 23.9-31.3 g, and the body weight of female mice was 17.7-25.4 g. • 1.3.6 Animal Source: Purchased from The Jackson Laboratory (United States). Breeding was conducted by Jiangsu GemPhanmatech Co., Ltd. • 1.3.7 Animal Certification of Quality, issuing authority, and receipt date: Certification number 320727210100609023. License number SCXK (Jiangsu) 2018-0008. Issuing authority: Jiangsu GemPharmatech Co., Ltd. Receipt date: Oct. 13, 2021. • 1.3.8 Feeding Conditions: Mice were reared in cages at the Innovative Drug Evaluation Center of Hebei Research Institute of Integrated Traditional Chinese and Western Medicine. License Number: SYXK (Hebei) 2020-006. Lighting: 12 h/day. Temperature: 20-26° C. Relative Humidity: 40%-70%. • 1.3.9 Quarantine Process: Animals were subjected to adaptive feeding for at least 5 days. […] Experimental Animal Production License Number: SCXK (Beijing) 2019-0003. Product Batch Number: 21073213. Expiration date: 2022 Jan. 3. • 1.3.11 Water: Clean water prepared by the ROB-B drinking water system for laboratory animal was provided, and filled in water bottles for free drinking. The drinking water was detected annually for all indicators, including mainly microbiological indicators, toxicological indicators, sensory characteristics, and general chemical parameters, and the detection was commissioned to a qualified institution. Microbial limit detection was performed every 2 months, which was commissioned to the Quality Control Department of Shijiazhuang Yiling Pharmaceutical Co., Ltd. The detection reports were stored by the animal department and archived annually. • 1.3.12 Bedding: Corn cob bedding (common grade) provided by Beijing Keao Xieli Feed Co., Ltd., was sterilized by high temperature and high pressure before use. Experimental Animal Production License Number: SCXK (Beijing) 2020-0010. Batch Number: 21099811. • 1.3.13 Marking: Mice were marked with ear tags, provided by Globalebio (Beijing) Technology Co., Ltd.\nas §1\nThe drug was orally administered via gavage, consistent with the clinically recommended oral administration.\nThe administration dose for mice was 10 times the clinical dose, approximately 0.02 g/kg. The used administration volume was 10 ml/kg and administration concentration was 0.02 g/10 ml. […] During the preparation, one tablet was taken, ground with sterile injectable water and adjusted to a final volume of 25 ml. The obtained liquor can be used based on the number of animals.\nThe proposed clinical dose of TCM-073 was 18 g of raw drug/day. This test set three doses: low dose (1.5 g raw drug/kg), medium dose (3.0 g raw drug/kg), and high dose (6.0 g raw drug/kg), corresponding to 5, 10, and 20 times the clinical dose, respectively (See Table 14 for details). An appropriate amount of the drug was weighed and ground using sterile injectable water as the solvent to prepare high, medium, and low doses.\nas §2\nBased on preliminary experimental experience, literature review, and the disease characteristics of this mouse strain, the administration was started when the mice were 70 days old. […]"}, "[9]": {"conditions": "Riluzole 0.02 g/kg gavage, female"}, "[10]": {"conditions": "Riluzole 0.02 g/kg gavage, male"}}, "note": "“And” between values parts separate entries of the source, which are not always exact repeats. Identical values can stand only once.", "data": [{"smiles": "Nc1nc2ccc(OC(F)(F)F)cc2s1", "note": "[Riluzole]", "values": [{"measurement": "Co-localization degree of synaptotagmin-2 and α-BTX (neuromuscular junction), gastrocnemius muscle", "setting": "[1]", "result": "increased the co-localization degree of neuromuscular junctions"}, {"measurement": "MBP (myelin marker) expression in spinal cord, immunofluorescence", "setting": "[1]", "result": "increased the expression levels of the myelin marker"}, {"measurement": "Number of Pax7-positive satellite cells in the gastrocnemius muscle", "setting": "[1]", "result": "increased the number of positive satellite cells in the gastrocnemius muscle"}, {"measurement": "Tuj-1 (neuronal marker) expression in spinal cord, immunofluorescence", "setting": "[1]", "result": "increased the expression levels of the myelin marker and neuronal marker"}, {"measurement": "Hanging time", "setting": "[2]; 31 d of administration", "result": "63.3 ± 29.2", "unit": "s"}, {"measurement": "Hanging time", "setting": "[2]; 34 d of administration", "result": "57.6 ± 2.6", "unit": "s"}, {"measurement": "Hanging time", "setting": "[2]; 39 d of administration", "result": "46.5 ± 29.8", "unit": "s"}, {"measurement": "Hanging time", "setting": "[2]; 42 d of administration", "result": "40.8 ± 30.7", "unit": "s"}, {"measurement": "Hanging time", "setting": "[2]; 46 d of administration", "result": "33.8 ± 27.2", "unit": "s"}, {"measurement": "Time to onset of paralysis", "setting": "[3]; female", "result": "139.6 ± 5.7", "unit": "days"}, {"measurement": "Time to onset of paralysis", "setting": "[3]; male", "result": "129.2 ± 18.9", "unit": "days"}, {"measurement": "Neurological function score", "setting": "[4]; 31 d of administration", "result": "2.2 ± 0.4"}, {"measurement": "Neurological function score", "setting": "[4]; 34 d of administration", "result": "2.2 ± 0.4"}, {"measurement": "Neurological function score", "setting": "[4]; 39 d of administration", "result": "2.2 ± 0.5"}, {"measurement": "Neurological function score", "setting": "[4]; 42 d of administration", "result": "2.3 ± 0.5"}, {"measurement": "Neurological function score", "setting": "[4]; 46 d of administration", "result": "2.2 ± 0.4"}, {"measurement": "Sciatic nerve axonal degeneration with myelin degeneration, number of samples per lesion grade", "setting": "[5]; Riluzole 0.02 g/kg gavage, 6 samples", "result": "myelin degeneration (1 sample: +++, 4 samples: ++, 1 sample: +)."}, {"measurement": "Lesion score (divided by gender)", "setting": "[5]; [9]", "result": 2}, {"measurement": "Lesion score (divided by gender)", "setting": "[5]; [10]", "result": 2}, {"measurement": "Group Score (lesion)", "setting": "[5]; Riluzole 0.02 g/kg gavage, median of lesion grade points of the group", "result": 2}, {"measurement": "Axonal degeneration with myelin degeneration, lesion grade of individual animal", "setting": "[5]; [9]", "result": "+ and ++ (2×)"}, {"measurement": "Axonal degeneration with myelin degeneration, lesion grade of individual animal", "setting": "[5]; [10]", "result": "++ (2×) and +++"}, {"measurement": "Sciatic nerve pathological changes (HE staining) compared to the model control group", "setting": "[5]; Riluzole 0.02 g/kg, TCM-073 high dose 6.0 g raw drug/kg", "result": "slightly milder"}, {"measurement": "inhibition at 20 mg/kg", "setting": "[6]", "result": 20, "unit": "%"}, {"measurement": "MBP content in spinal cord", "setting": "[7]", "result": "0.99 ± 0.62"}, {"measurement": "SV2A content in spinal cord", "setting": "[7]", "result": "0.41 ± 0.15"}, {"measurement": "Peak value of action potential", "setting": "[8]; female", "result": "10.4 ± 4.0"}, {"measurement": "Time course within region of interest of action potential", "setting": "[8]; female", "result": "0.0018 ± 0.0002"}, {"measurement": "Wave amplitude of action potential", "setting": "[8]; female", "result": "14.8 ± 5.6"}, {"measurement": "Peak value of action potential", "setting": "[8]; male", "result": "8.8 ± 2.2"}, {"measurement": "Time course within region of interest of action potential", "setting": "[8]; male", "result": "0.0016 ± 0.0001"}, {"measurement": "Wave amplitude of action potential", "setting": "[8]; male", "result": "11.2 ± 3.9"}, {"measurement": "Peak value of action potential", "setting": "[8]; no division by gender", "result": "9.6 ± 3.3"}, {"measurement": "Time course within region of interest of action potential", "setting": "[8]; no division by gender", "result": "0.0017 ± 0.0002"}, {"measurement": "Wave amplitude of action potential", "setting": "[8]; no division by gender", "result": "13.0 ± 5.0"}]}]}
